Assay results: patent US5324502A, “Radiopharmaceuticals for imaging the heart” (priority 1992, dated 1994)
Like-named read-outs stand apart in the source and are kept apart here.

Tests used:
[1] = Octanol/water partition coefficient of radiolabeled gallium complexes; assay type: physicochemical
Experimental: Octanol/water partition coefficients were measured by vortex mixing 1 mL of 1-octanol and 1 mL of isotonic Tris buffer (pH 7.0) with a 1-5 μL sample of the radiolabeled gallium complex. Following centrifugation at >1200 g for 5 minutes, the octanol and aqueous phases were sampled and counted in an automatic well counter.

[2] = rat, i.v.; for % injected dose in heart, 1 min / % injected dose in heart, 2 h: preliminary studies
Experimental: The gallium-67 complexes are prepared by ligand exchange from gallium-67 chloride, employing the tris(acetylacetonato)gallium(III) complex as an intermediate. The Ga-67 acetylacetonate in ethanol is reacted with the chelating ligand or ligand precursor at elevated temperature to form rapidly the desired gallium radiopharmaceutical. […] The biodistribution of several radiopharmaceuticals was determined in rats following intravenous injection using techniques previously described (M. A. Green, Nuclear Medicine and Biology 14:59-61, 1987; E. John and M. A. Green, J. Medicinal Chemistry, 33:1764-1770, 1990).
Under ether anesthesia, 1 to 3 μCi (0.1-0.2 mL) of no-carrier-added Ga-67 compound was administered by bolus injection into the femoral vein of male Sprague-Dawley rats. The ether anesthetized rats were sacrificed by decapitation at given time intervals post-injection, organs of interest were removed, weighed, and the gallium-67 activity counted. The biodistribution was calculated as a percentage of the injected dose per gram of tissue and percentage of injected dose per organ for each sample.

## COc1cc([O-])c(C=NCCCNCCNCCCN=Cc2c([O-])cc(OC)cc2OC)c(OC)c1.[67Ga+3] [(4,6-MeO2 Sal)2 BAPEN]
[1]; octanol/tris buffer, pH 7
  log P: 1.68
[2]; 1 min
  % Injected Dose per Gram Tissue, Blood: 0.66 ± 0.14 % Injected Dose per Gram Tissu
  % Injected Dose per Gram Tissue, Brain: 0.03 ± 0.01 % Injected Dose per Gram Tissu
  % Injected Dose per Gram Tissue, Heart: 1.52 ± 0.24 % Injected Dose per Gram Tissu
  % Injected Dose per Gram Tissue, Kidney (one): 6.40 ± 0.92 % Injected Dose per Gram Tissu
  % Injected Dose per Gram Tissue, Liver: 4.72 ± 0.82 % Injected Dose per Gram Tissu
  % Injected Dose per Gram Tissue, Lungs: 0.81 ± 0.16 % Injected Dose per Gram Tissu
  % Injected Dose per Gram Tissue, Spleen: 0.61 ± 0.09 % Injected Dose per Gram Tissu
  % injected dose in heart, 1 min: 1.04 ± 0.12 % injected dose
[2]; 5 min
  % Injected Dose Per Gram of Tissue, Blood: 0.11 ± 0.01 % Injected Dose Per Gram of Tissue
  % Injected Dose Per Gram of Tissue, Brain: 0.01 ± 0.00 % Injected Dose Per Gram of Tissue
  % Injected Dose Per Gram of Tissue, Heart: 1.45 ± 0.20 % Injected Dose Per Gram of Tissue
  % Injected Dose Per Gram of Tissue, Kidney (1): 6.10 ± 0.53 % Injected Dose Per Gram of Tissue
  % Injected Dose Per Gram of Tissue, Liver: 4.32 ± 0.53 % Injected Dose Per Gram of Tissue
  % Injected Dose Per Gram of Tissue, Lungs: 0.55 ± 0.05 % Injected Dose Per Gram of Tissue
  % Injected Dose Per Gram of Tissue, Spleen: 0.52 ± 0.15 % Injected Dose Per Gram of Tissue
[2]; 15 min
  % Injected Dose per Gram Tissue, Blood: 0.07 ± 0.01 % Injected Dose per Gram Tissu
  % Injected Dose per Gram Tissue, Brain: 0.01 ± 0.00 % Injected Dose per Gram Tissu
  % Injected Dose per Gram Tissue, Heart: 1.22 ± 0.12 % Injected Dose per Gram Tissu
  % Injected Dose per Gram Tissue, Kidney (one): 4.22 ± 0.30 % Injected Dose per Gram Tissu
  % Injected Dose per Gram Tissue, Liver: 2.19 ± 0.21 % Injected Dose per Gram Tissu
  % Injected Dose per Gram Tissue, Lungs: 0.42 ± 0.06 % Injected Dose per Gram Tissu
  % Injected Dose per Gram Tissue, Spleen: 0.43 ± 0.06 % Injected Dose per Gram Tissu
[2]; 120 min
  % Injected Dose per Gram Tissue, Blood: 0.03 ± 0.00 % Injected Dose per Gram Tissu
  % Injected Dose per Gram Tissue, Brain: 0.01 ± 0.00 % Injected Dose per Gram Tissu
  % Injected Dose per Gram Tissue, Heart: 1.37 ± 0.12 % Injected Dose per Gram Tissu
  % Injected Dose per Gram Tissue, Kidney (one): 2.77 ± 0.24 % Injected Dose per Gram Tissu
  % Injected Dose per Gram Tissue, Liver: 0.33 ± 0.01 % Injected Dose per Gram Tissu
  % Injected Dose per Gram Tissue, Lungs: 0.45 ± 0.11 % Injected Dose per Gram Tissu
  % Injected Dose per Gram Tissue, Spleen: 0.37 ± 0.06 % Injected Dose per Gram Tissu
[2]
  % injected dose in heart, 2 h: 0.86 ± 0.11 % injected dose
[2]; ratio, 1 min
  Heart/Blood: 2.34 ± 0.36
  Heart/Liver: 0.32 ± 0.03
  Heart/Lungs: 1.88 ± 0.18
[2]; ratio, 5 min
  Heart/Blood: 13.28 ± 2.19
  Heart/Liver: 0.34 ± 0.04
  Heart/Lung: 2.64 ± 0.34
[2]; ratio, 15 min
  Heart/Blood: 18.10 ± 0.91
  Heart/Liver: 0.56 ± 0.10
  Heart/Lungs: 2.98 ± 0.53
[2]; ratio, 120 min
  Heart/Blood: 45.58 ± 3.96
  Heart/Liver: 4.12 ± 0.44
  Heart/Lungs: 3.27 ± 1.32

## COc1cc([O-])c(C=NCCNCCNCCN=Cc2c([O-])cc(OC)cc2OC)c(OC)c1.[67Ga+3] [(4,6-MeO2 Sal)2 TETA, ^67 GaL^+ L = [bis(4,6-dimethoxysalicylaldimino)-N,N'-triethylene-tetraamine]]
[1]; 1-octanol / isotonic Tris buffer pH 7.0
  log P: 0.24
[2]; 1 min
  % Injected Dose per Gram Tissue, Blood: 1.90 ± 0.56 % Injected Dose per Gram Tissu
  % Injected Dose per Gram Tissue, Brain: 0.05 ± 0.01 % Injected Dose per Gram Tissu
  % Injected Dose per Gram Tissue, Heart: 0.76 ± 0.04 % Injected Dose per Gram Tissu
  % Injected Dose per Gram Tissue, Kidney (one): 4.36 ± 0.27 % Injected Dose per Gram Tissu
  % Injected Dose per Gram Tissue, Liver: 1.88 ± 0.15 % Injected Dose per Gram Tissu
  % Injected Dose per Gram Tissue, Lungs: 0.97 ± 0.03 % Injected Dose per Gram Tissu
  % Injected Dose per Gram Tissue, Spleen: 0.35 ± 0.02 % Injected Dose per Gram Tissu
  % Injected Dose per Organ, Blood: 19.26 ± 2.97 % Injected Dose per Organ
  % Injected Dose per Organ, Brain: 0.07 ± 0.01 % Injected Dose per Organ
  % Injected Dose per Organ, Heart: 0.55 ± 0.04 % Injected Dose per Organ
  % Injected Dose per Organ, Kidney (one): 3.83 ± 0.31 % Injected Dose per Organ
  % Injected Dose per Organ, Liver: 16.90 ± 1.70 % Injected Dose per Organ
  % Injected Dose per Organ, Lungs: 1.17 ± 0.23 % Injected Dose per Organ
  % Injected Dose per Organ, Spleen: 0.22 ± 0.01 % Injected Dose per Organ
  % injected dose in heart, 1 min: 0.55 ± 0.04 % injected dose
[2]; 15 min
  % Injected Dose per Gram Tissue, Blood: 0.71 ± 0.08 % Injected Dose per Gram Tissu
  % Injected Dose per Gram Tissue, Brain: 0.03 ± 0.01 % Injected Dose per Gram Tissu
  % Injected Dose per Gram Tissue, Heart: 0.53 ± 0.06 % Injected Dose per Gram Tissu
  % Injected Dose per Gram Tissue, Kidney (one): 2.35 ± 0.41 % Injected Dose per Gram Tissu
  % Injected Dose per Gram Tissue, Liver: 2.42 ± 0.25 % Injected Dose per Gram Tissu
  % Injected Dose per Gram Tissue, Lungs: 0.51 ± 0.05 % Injected Dose per Gram Tissu
  % Injected Dose per Gram Tissue, Spleen: 0.18 ± 0.02 % Injected Dose per Gram Tissu
  % Injected Dose per Organ, Blood: 9.32 ± 1.38 % Injected Dose per Organ
  % Injected Dose per Organ, Brain: 0.04 ± 0.01 % Injected Dose per Organ
  % Injected Dose per Organ, Heart: 0.36 ± 0.03 % Injected Dose per Organ
  % Injected Dose per Organ, Kidney (one): 1.89 ± 0.40 % Injected Dose per Organ
  % Injected Dose per Organ, Liver: 20.33 ± 1.11 % Injected Dose per Organ
  % Injected Dose per Organ, Lungs: 0.50 ± 0.05 % Injected Dose per Organ
  % Injected Dose per Organ, Spleen: 0.11 ± 0.02 % Injected Dose per Organ
[2]; 120 min
  % Injected Dose per Gram Tissue, Blood: 0.03 ± 0.01 % Injected Dose per Gram Tissu
  % Injected Dose per Gram Tissue, Brain: 0.01 ± 0.01 % Injected Dose per Gram Tissu
  % Injected Dose per Gram Tissue, Heart: 0.28 ± 0.05 % Injected Dose per Gram Tissu
  % Injected Dose per Gram Tissue, Kidney (one): 0.51 ± 0.10 % Injected Dose per Gram Tissu
  % Injected Dose per Gram Tissue, Liver: 0.83 ± 0.15 % Injected Dose per Gram Tissu
  % Injected Dose per Gram Tissue, Lungs: 0.08 ± 0.02 % Injected Dose per Gram Tissu
  % Injected Dose per Gram Tissue, Spleen: 0.06 ± 0.01 % Injected Dose per Gram Tissu
  % Injected Dose per Organ, Blood: 0.34 ± 0.02 % Injected Dose per Organ
  % Injected Dose per Organ, Brain: 0.01 ± 0.01 % Injected Dose per Organ
  % Injected Dose per Organ, Heart: 0.19 ± 0.03 % Injected Dose per Organ
  % Injected Dose per Organ, Kidney (one): 0.42 ± 0.04 % Injected Dose per Organ
  % Injected Dose per Organ, Liver: 6.90 ± 1.07 % Injected Dose per Organ
  % Injected Dose per Organ, Lungs: 0.10 ± 0.01 % Injected Dose per Organ
  % Injected Dose per Organ, Spleen: 0.04 ± 0.01 % Injected Dose per Organ
[2]
  % injected dose in heart, 2 h: 0.19 ± 0.03 % injected dose
[2]; ratio, 1 min
  Heart/Blood: 0.53 ± 0.04
  Heart/Liver: 0.41 ± 0.04
  Heart/Lungs: 0.79 ± 0.05
[2]; ratio, 15 min
  Heart/Blood: 0.74 ± 0.03
  Heart/Liver: 0.22 ± 0.01
  Heart/Lungs: 1.03 ± 0.20
[2]; ratio, 120 min
  Heart/Blood: 10.29 ± 2.64
  Heart/Liver: 0.34 ± 0.05
  Heart/Lungs: 3.49 ± 0.37
